What follows are compounds tested against T1, Human NK1 Receptor (Homo sapiens, UniProt P25103) (assay: In Vitro Human NK1 Receptor Binding Assay ([125I]Bolton-Hunter substance P displacement, IM9 cells)). Conditions: Table 4; [125I]Bolton-Hunter substance P displacement, human IM9 cells; read-out: IC50 (nM) hNK1.
T1 construct: endogenous in cells; host or cells: Human lymphoma IM9 cells (whole cells)
How it was run: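 Radioligand displacement on whole IM9 human lymphoma cells (2.5×10^6 cells/mL) using [125I]Bolton-Hunter substance P (0.05-0.1 nM), 50 min at 21° C in Tris pH 7.4/MnCl2 buffer with protease inhibitors. Non-specific binding defined by […] [Sar9, Met(O2)11] substance P. Filtration, gamma counting, iterative curve fitting.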

T1 sequence (P25103 whole entry): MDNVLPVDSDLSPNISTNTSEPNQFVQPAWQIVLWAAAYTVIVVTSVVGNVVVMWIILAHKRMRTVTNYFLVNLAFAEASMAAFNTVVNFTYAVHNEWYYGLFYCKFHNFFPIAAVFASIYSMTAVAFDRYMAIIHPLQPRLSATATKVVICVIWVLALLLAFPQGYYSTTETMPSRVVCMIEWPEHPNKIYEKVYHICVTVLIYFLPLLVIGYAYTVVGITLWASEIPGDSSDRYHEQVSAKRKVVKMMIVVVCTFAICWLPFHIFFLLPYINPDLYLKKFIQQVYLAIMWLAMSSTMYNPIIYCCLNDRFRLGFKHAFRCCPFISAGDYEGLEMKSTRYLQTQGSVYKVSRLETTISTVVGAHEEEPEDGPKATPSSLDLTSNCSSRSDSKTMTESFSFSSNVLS

Row | Compound | IC50
1 | CC(NC(=O)C(C)(Cc1c[nH]c2ccccc12)NCc1c2ccccc2cc2ccccc12)c1ccccc1 (stereo not drawn) [compound 346, 2-[(Anthracen-9-ylmethyl)-amino]-3-(1H-indol-3-yl)-2-methyl-N-(1-phenyl-ethyl)-propionamide] | > 10000 nM
2 | CC(NC(=O)C(C)(Cc1c[nH]c2ccccc12)NCc1ccc(Oc2ccccc2)cc1)c1ccccc1 (stereo not drawn) [compound 347, 3-(1H-Indol-3-yl)-2-methyl-2-(4-phenoxy-benzylamino)-N-(1-phenyl-ethyl)-propionamide] | 3380 nM
3 | CC(NC(=O)C(C)(Cc1c[nH]c2ccccc12)NCc1ccc(-c2ccccc2)cc1)c1ccccc1 (stereo not drawn) [compound 348, 2-[(Biphenyl-4-ylmethyl)-amino]-3-(1H-indol-3-yl)-2-methyl-N-(1-phenyl-ethyl)-propionamide] | 5560 nM
4 | CC(NC(=O)C(C)(Cc1c[nH]c2ccccc12)NCc1ccc2c(c1)OCO2)c1ccccc1 (stereo not drawn) [compound 349, 2-[(Benzo[1,3]dioxol-5-ylmethyl)-amino]-3-(1H-indol-3-yl)-2-methyl-N-(1-phenyl-ethyl)-propionamide] | 356 nM
5 | CC(NC(=O)C(C)(Cc1c[nH]c2ccccc12)NCc1ccccc1Sc1ccc(Cl)cc1)c1ccccc1 (stereo not drawn) [compound 350, 2-[2-(4-Chloro-phenylsulfanyl)-benzylamino]-3-(1H-indol-3-yl)-2-methyl-N-(1-phenyl-ethyl)-propionamide] | > 10000 nM
6 | CC(NC(=O)C(C)(Cc1c[nH]c2ccccc12)NCc1ccc(C=Cc2ccccc2)cc1)c1ccccc1 (stereo not drawn) [compound 351, 3-(1H-Indol-3-yl)-2-methyl-N-(1-phenyl-ethyl)-2-(4-styryl-benzylamino)-propionamide] | > 10000 nM
7 | CC=C(C)CCC=C(C)CNC(C)(Cc1c[nH]c2ccccc12)C(=O)NC(C)c1ccccc1 (stereo not drawn) [compound 352, 2-(2,6-Dimethyl-octa-2,6-dienylamino)-3-(1H-indol-3-yl)-2-methyl-N-(1-phenyl-ethyl)-propionamide] | 2210 nM
8 | CC(NC(=O)C(C)(Cc1c[nH]c2ccccc12)NCc1ccc(-c2ccc([N+](=O)[O-])cc2)o1)c1ccccc1 (stereo not drawn) [compound 353, 3-(1H-Indol-3-yl)-2-methyl-2-{[5-(4-nitro-phenyl)-furan-2-ylmethyl]-amino}-N-(1-phenyl-ethyl)-propionamide] | 13 nM

The remaining lines, values ahead:

Row | IC50 | Compound
9 | 1730 nM | CC(NC(=O)C(C)(Cc1c[nH]c2ccccc12)NCc1ccc2c(c1)Cc1ccccc1-2)c1ccccc1 (stereo not drawn) [compound 354, 2-[(9H-Fluoren-2-ylmethyl)-amino]-3-(1H-indol-3-yl)-2-methyl-N-(1-phenyl-ethyl)-propionamide]
10 | 1050 nM | CC(NC(=O)C(C)(Cc1c[nH]c2ccccc12)NCc1c[nH]c2ccccc12)c1ccccc1 (stereo not drawn) [compound 355, 3-(1H-Indol-3-yl)-2-[(1H-indol-3-ylmethyl)-amino]-2-methyl-N-(1-phenyl-ethyl)-propionamide]
11 | > 10000 nM | CCCCCC(=Cc1ccccc1)CNC(C)(Cc1c[nH]c2ccccc12)C(=O)NC(C)c1ccccc1 (stereo not drawn) [compound 356, 3-(1H-Indol-3-yl)-2-methyl-2-(2-pentyl-3-phenyl-allylamino)-N-(1-phenyl-ethyl)-propionamide]
12 | 548 nM | CC(NC(=O)C(C)(Cc1c[nH]c2ccccc12)NCc1cccs1)c1ccccc1 (stereo not drawn) [compound 357, 3-(1H-Indol-3-yl)-2-methyl-N-(1-phenyl-ethyl)-2-[(thiophen-2-ylmethyl)-amino]-propionamide]
13 | 598 nM | CC(NC(=O)C(C)(Cc1c[nH]c2ccccc12)NCc1ccsc1)c1ccccc1 (stereo not drawn) [compound 358, 3-(1H-Indol-3-yl)-2-methyl-N-(1-phenyl-ethyl)-2-[(thiophen-3-ylmethyl)-amino]-propionamide]
14 | 3710 nM | CC(NC(=O)C(C)(Cc1c[nH]c2ccccc12)NCc1ccncc1)c1ccccc1 (stereo not drawn) [compound 359, 3-(1H-Indol-3-yl)-2-methyl-N-(1-phenyl-ethyl)-2-[(pyridin-4-ylmethyl)-amino]-propionamide]

Same assay, conditions: Table 5; [125I]Bolton-Hunter substance P displacement, human IM9 cells; read-out: IC50 (nM) hNK1

Row | IC50 | Compound
15 | 729 nM | CC(NC(=O)C(Cc1c[nH]c2ccccc12)NCc1ccccc1OCc1cccnc1)c1ccccc1 (stereo not drawn) [compound 361]

— patent US6472418B1, “Non-peptide NK1 receptors antagonists” (Warner-Lambert Company, priority 1998, dated 2002)
